Key:
[1] = in vivo; details: Sprague-Dawley, rat, po, 3 mg/kg
[2] = species on record: Rattus norvegicus; details: in vivo, po, 3 mg/kg
[3] = in vivo; details: Sprague-Dawley, rat, po, 3 mg/kg; remark: listed apart in the source
[4] = species on record: Rattus norvegicus; details: in vivo, po, 3 mg/kg; remark: listed apart in the source
[5] = species on record: Rattus norvegicus; details: in vivo, po, 3 mg/kg; remark: listed apart in the source
[6] = in vivo; details: Sprague-Dawley, rat, plasma, po, 3 mg/kg
[7] = in vivo; details: Sprague-Dawley, rat, po, 3 mg/kg; remark: listed apart in the source
[8] = in vivo; details: Sprague-Dawley, rat, po, 3 mg/kg; remark: listed apart in the source
[9] = in vivo; details: Sprague-Dawley, rat, po, 3 mg/kg; remark: listed apart in the source

| SMILES | Cmax [1] [ng/mL] | AUCt [2] [ng·h/mL] | Tmax [3] [h] | Vss/F [4] [L/kg] | t1/2 [5] [h] | AUC(0-t) [6] [ng·h/mL] | half-life [7] [h] | CL/F [8] [mL/min/kg] | Vd/F [9] [L/kg] |
| --- | --- | --- | --- | --- | --- | --- | --- | --- | --- |
| CCCCCCCCc1ccc(CCC(N)(CO)COP(=O)(O)O)cc1 (stereo not drawn) | 385 | 4910 | 6 | 17.2 | 25.2 |  |  |  |  |
| COc1ccc(-c2nc(-c3ccc(CCC(N)(CO)CO)cc3)co2)cc1.Cl | 9.51 |  | 4.7 |  |  | 73.4 | 5.2 | 692 | 300 |
| Cl.NC(CO)(CO)CCc1ccc(-c2coc(-c3ccc(Cl)cc3)n2)cc1 | 28.5 |  | 6.7 |  |  | 900 | 18.8 | 36.7 | 60 |
| Cl.NC(CO)(CO)CCc1ccc(-c2coc(Cc3ccc(Cl)cc3)n2)cc1 | 109 |  | 4 |  |  | 1700 | 21.1 | 25 | 44.1 |
| CCCCCCCCc1ccc(CCC(N)(CO)CO)cc1 [FINGOLIMOD] | 13.2 | 319 | 8.4 | 208 | 18.9 |  |  |  |  |

From ChEMBL document CHEMBL3352708, “Discovery of oxazole and triazole derivatives as potent and selective S1P(1) agonists through pharmacophore-guided design” (Eur J Med Chem, 2014)
